#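 These data come from cells grown in 96-well plates and exposed to compound for 48 hours at five concentrations. GI50 is the concentration that inhibits growth by half. TGI marks complete inhibition of growth.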
# Key:
# Experiment in all cases: NCI tumour cell line growth inhibition, 48 h
# [1] = tested on: SN12C renal
# [2] = tested on: BT-549 breast
# [3] = tested on: SK-MEL-28 melanoma
# [4] = tested on: SF-539 CNS
# [5] = tested on: UO-31 renal
# [6] = tested on: ACHN renal
# [7] = tested on: MALME-3M melanoma
# [8] = tested on: OVCAR-5 ovarian
# [9] = tested on: K-562 leukemia
# [10] = tested on: EKVX NSCLC
# [11] = tested on: RPMI-8226 leukemia
# [12] = tested on: CCRF-CEM leukemia
# [13] = tested on: HCC-2998 colon
# [14] = tested on: UACC-62 melanoma
# [15] = tested on: RXF 393 renal
# [16] = tested on: CAKI-1 renal
# [17] = tested on: HOP-92 NSCLC
# [18] = tested on: MDA-MB-435
# [19] = tested on: SK-MEL-5 melanoma
# [20] = tested on: HL-60(TB) leukemia
# [21] = tested on: HCT-116 colon
# [22] = tested on: DU-145 prostate
# [23] = tested on: NCI-H460 lung
# [24] = tested on: MDA-MB-231 breast
# [25] = tested on: LOX IMVI melanoma
# [26] = tested on: OVCAR-8 ovarian
# [27] = tested on: SF-268 CNS
# [28] = tested on: 786-0 renal
# [29] = tested on: OVCAR-3 ovarian
structure (smiles),measurement,setting,value
Cc1cc(C2(c3cc(C)c(OCC(O)CNc4c(C)n(C)n(-c5ccccc5)c4=O)cc3C(C)C)OC(=O)c3ccccc32)c(C(C)C)cc1OCC(O)CNc1c(C)n(C)n(-c2ccccc2)c1=O (stereo not drawn),GI50,[1],26.1 µM
same,TGI,[1],> 100 µM
same,GI50,[2],23.3 µM
same,TGI,[2],> 100 µM
same,GI50,[3],23.2 µM
same,TGI,[3],92.9 µM
same,GI50,[4],18.6 µM
same,TGI,[4],52.9 µM
same,GI50,[5],19.9 µM
same,TGI,[5],> 100 µM
same,GI50,[6],23.6 µM
same,TGI,[6],> 100 µM
same,GI50,[7],20 µM
same,TGI,[7],52.9 µM
same,GI50,[8],17.7 µM
same,TGI,[8],56.3 µM
same,GI50,[9],14.4 µM
same,TGI,[9],> 100 µM
same,GI50,[10],14.7 µM
same,TGI,[10],> 100 µM
same,GI50,[11],13.9 µM
same,TGI,[11],84.6 µM
same,GI50,[12],15.5 µM
same,TGI,[12],> 100 µM
same,GI50,[13],17.1 µM
same,TGI,[13],49.6 µM
same,GI50,[14],9.74 µM
same,TGI,[14],24.4 µM
same,GI50,[15],5.2 µM
same,TGI,[15],38 µM
same,GI50,[16],4.11 µM
same,TGI,[16],> 100 µM
same,GI50,[17],4.49 µM
same,TGI,[17],49.8 µM
same,GI50,[18],14.7 µM
same,TGI,[18],38.3 µM
same,GI50,[19],13.2 µM
same,TGI,[19],26.7 µM
same,GI50,[20],14.2 µM
same,TGI,[20],79.7 µM
same,GI50,[21],16.9 µM
same,TGI,[21],46.8 µM
same,GI50,[22],34 µM
same,TGI,[22],> 100 µM
same,GI50,[23],15.6 µM
same,TGI,[23],43.4 µM
same,GI50,[24],10.1 µM
same,TGI,[24],27.2 µM
same,GI50,[25],14.4 µM
same,TGI,[25],30.3 µM
same,GI50,[26],27 µM
same,TGI,[26],> 100 µM
same,GI50,[27],18.1 µM
same,TGI,[27],> 100 µM
same,GI50,[28],19.2 µM
same,TGI,[28],76.5 µM
same,GI50,[29],19 µM
same,TGI,[29],92.6 µM

# Reference: PubChem BioAssay (NCI)
